Reference: patent US20100111947A1, “PHARMACEUTICAL COMPOSITION COMPRISING ANTIBODY COMPOSITION WHICH SPECIFICALLY BINDS TO GANGLIOSIDE GM2” (KYOWA HAKKO KIRIN CO., LTD., priority 2008, published 2010)

Tested on: KMS-11 cells (human multiple myeloma cell)
Assay: Antitumor effect against KMS-11 cells transplanted subcutaneously into SCID mice (tumor volume V/V0, T/C)
Type: in vivo
Conditions: SCID mouse, KMS-11 xenograft, KM8969 1 mg/kg, L-PAM 3 mg/kg, tail vein
Method: Ten days after the cell transplantation, a diameter of a tumor was measured with calipers, and a tumor volume was calculated using the following formula.
(Formula) Tumor volume=short diameter×short diameter […]×0.5
Individuals having the tumor volume within the range of 140 to 184 mm^3 were selected, and grouped such that the average of tumor volume was to be almost the same. Each of following administration groups A to D was administered to the mice. Incidentally, the grouped day was defined as Day 0.
C. Group administering Melphalan (hereinafter referred to as L-PAM; Sigma) solely: 3 mg/kg was administered on Day 0 and Day 7.
With time, the tumor volume was measured. The antitumor effect was evaluated by comparing average values of a tumor volume change (V/V0) when the tumor volume on Day 0 in each group was defined as V0.

With N[C@@H](Cc1ccc(N(CCCl)CCCl)cc1)C(=O)O [L-PAM, Melphalan] the “T/C (V/V0 of group divided by V/V0 of negative control group)” value (Day 0) was 1.0000, the “T/C (V/V0 of group divided by V/V0 of negative control group)” value (Day 4) was 0.8624 and the “T/C (V/V0 of group divided by V/V0 of negative control group)” value (Day 7) was 0.8354. For the same compound, the “T/C (V/V0 of group divided by V/V0 of negative control group)” value (Day 10) was 0.6430, the “T/C (V/V0 of group divided by V/V0 of negative control group)” value (Day 14) was 0.5255 and the “T/C (V/V0 of group divided by V/V0 of negative control group)” value (Day 17) was 0.4159. For the same compound, the “T/C (V/V0 of group divided by V/V0 of negative control group)” value (Day 21) was 0.2881, the “T/C (V/V0 of group divided by V/V0 of negative control group)” value (Day 24) was 0.2872 and the “T/C (V/V0 of group divided by V/V0 of negative control group)” value (Day 28) was 0.2348.
